Reference: patent US20170107503A1, “NOVEL METHODS, POLYPEPTIDES AND USES THEREOF” (priority 2014, published 2017)

Legend:
Assay type in all cases: biochemical
Conditions in all cases: WT-Trp = 100
[1] = target: T1, Atlantic cod (Gadus morhua) trypsin I, wildtype, purified from Atlantic cod (WT-Trp), SEQ ID NO: 1 (Gadus morhua, UniProt P16049); test: Activity assay to determine kinetic constants, WT-Trp (purified)
T1 construct: from tissue
T1 sequence (P16049 20-241): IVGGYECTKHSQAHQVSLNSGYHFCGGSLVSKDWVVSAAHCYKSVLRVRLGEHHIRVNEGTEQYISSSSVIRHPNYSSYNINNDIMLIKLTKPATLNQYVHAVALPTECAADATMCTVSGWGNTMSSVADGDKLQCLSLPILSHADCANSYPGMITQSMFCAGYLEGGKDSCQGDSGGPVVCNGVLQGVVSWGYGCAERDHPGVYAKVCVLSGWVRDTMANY
Description: The following polypeptides were obtained or produced: • (a) Wildtype trypsin I purified from Atlantic cod (“WT-Tryp” or “wildtype”); • (b) Recombinantly expressed wildtype trypsin I of Atlantic cod (SEQ ID NO:1, “R-Tryp”); and • (c) Thirty-eight different mutated versions of trypsin I of Atlantic cod (i.e. mutated sequences of SEQ ID NO:1).
(§1) The substrate (Gly-Pro-Arg) was used at concentrations 0.005-0.15 mM in assay buffer containing 1% DMSO. 245 μL of substrate solutions were pipetted into a 96-well plate. The reaction was started by adding 5 μL of the sample mixture (above) and monitored at 410 nm in a SpectraMax plate reader. Kinetic measurement was performed every minute of a continuous 15-min run.

[2] = target: T2, Atlantic cod (Gadus morhua) trypsin I, recombinant wildtype, EZA-001, SEQ ID NO: 1 (Gadus morhua, UniProt P16049); test: Activity assay to determine kinetic constants, EZA-001
T2 construct: made in house; host or cells: E. coli BL21 (DE3)
T2 sequence (P16049 20-241): T1 sequence (P16049 20-241)
Description: (§2) Polypeptides corresponding to the wildtype amino acid sequence of trypsin I from Atlantic cod and thirty-eight mutated versions thereof were produced using the methods described in Example A.
(§3) Activation of recombinant enzymes (approximately 0.01 mg/ml) was achieved by adding wild type trypsin (0.2 U/ml) at room temperature and incubate for 24 hours. The mixture was made in 20 mM Tris-HCl, 1 mM CaCl2, 50% glycerol, pH 8.0 to a final volume of 200 μl.
as §1

[3] = tested on: Atlantic cod (Gadus morhua) trypsin I variant EZA-002, N244S, Y245N, S87K in SEQ ID NO: 1 (N240S, Y241N, S88K in SEQ ID NO: 2); test: Activity assay to determine kinetic constants, EZA-002
Description: as §2, §3, §1

[4] = target: T3, Atlantic cod (Gadus morhua) trypsin I variant EZA-003, K154T in SEQ ID NO: 1 (K152T in SEQ ID NO: 2) (Gadus morhua, UniProt P16049, K152T); test: Activity assay to determine kinetic constants, EZA-003
T3 construct: made in house; host or cells: E. coli BL21 (DE3)
Description: as §2, §3, §1

[5] = tested on: Atlantic cod (Gadus morhua) trypsin I variant EZA-004, K154L in SEQ ID NO: 1 (K152L in SEQ ID NO: 2); test: Activity assay to determine kinetic constants, EZA-004
Description: as §2, §3, §1

[6] = tested on: Atlantic cod (Gadus morhua) trypsin I variant EZA-005, K154V in SEQ ID NO: 1 (K152V in SEQ ID NO: 2); test: Activity assay to determine kinetic constants, EZA-005
Description: as §2, §3, §1

[7] = target: T4, Atlantic cod (Gadus morhua) trypsin I variant EZA-006, K154E in SEQ ID NO: 1 (K152E in SEQ ID NO: 2) (Gadus morhua, UniProt P16049, K152E); test: Activity assay to determine kinetic constants, EZA-006
T4 construct: made in house; host or cells: E. coli BL21 (DE3)
Description: as §2, §3, §1

[8] = tested on: Atlantic cod (Gadus morhua) trypsin I variant EZA-007, N98T in SEQ ID NO: 1 (N99T in SEQ ID NO: 2); test: Activity assay to determine kinetic constants, EZA-007
Description: as §2, §3, §1

[9] = tested on: Atlantic cod (Gadus morhua) trypsin I variant EZA-008, I99L in SEQ ID NO: 1 (I100L in SEQ ID NO: 2); test: Activity assay to determine kinetic constants, EZA-008
Description: as §2, §3, §1

[10] = tested on: Atlantic cod (Gadus morhua) trypsin I variant EZA-009, L185G, P225Y in SEQ ID NO: 1 (L184G, P221Y in SEQ ID NO: 2); test: Activity assay to determine kinetic constants, EZA-009
Description: as §2, §3, §1

T4 sequence (P16049 20-241 K152E): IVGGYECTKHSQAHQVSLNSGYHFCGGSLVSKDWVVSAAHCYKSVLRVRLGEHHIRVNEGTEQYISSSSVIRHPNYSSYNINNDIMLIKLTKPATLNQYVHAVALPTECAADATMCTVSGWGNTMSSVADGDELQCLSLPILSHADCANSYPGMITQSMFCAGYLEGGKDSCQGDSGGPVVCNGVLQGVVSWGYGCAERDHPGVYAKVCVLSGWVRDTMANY
T3 sequence (P16049 20-241 K152T): as the sequence (P16049 20-241 K152E) above, with E133T counted along it

Gly-Pro-Arg
Vmax (Kcat), Relative to WT-Trp [1]: 100
Vmax, Relative to WT-Trp [2]: 99
Vmax, Relative to WT-Trp [3]: 99
Vmax, Relative to WT-Trp [4]: 96
Vmax, Relative to WT-Trp [5]: 82
Vmax, Relative to WT-Trp [6]: 96
Vmax, Relative to WT-Trp [7]: 98
Vmax, Relative to WT-Trp [8]: 99
Vmax, Relative to WT-Trp [9]: 95
Vmax, Relative to WT-Trp [10]: 98
